We go through two molecules from US11716974B2, “Human liver chimeric mouse with deficient P450 oxidoreductase” (Baylor College of Medicine, priority 2016, dated 2023).

Data set [1] can be described thus: Troglitazone phase II metabolites in livers of humanized and non-humanized mice with and without Por and Ugdh deletion. Format: in vivo, mouse. The conditions noted are these: liver. How it is done: Percentage of liver glucuronidated and sulfated metabolites detected in humanized livers 2 hours after i.p injection of troglitazone (600 mg/kg). FIG. 25A. Humanized FRG mice. FIG. 25B. Humanized FRG mice after murine Por and Ugdh deletion. FIG. 25C. Non-humanized FRG mice. FIG. 25D. Non-humanized FRG mice with Por and Ugdh genes deleted. Sulfate metabolites of troglitazone in red and glucuronide conjugates in blue.
Troglitazone metabolites (two hours after i.p. injection of 600 mg/kg troglitazone) in the livers of humanized and non-humanized FRG mice with and without Por and Ugdh deletion was analyzed.

Data set [2] in a line: Gefitinib metabolites M4 and M28 in feces of humanized (Hu-PIRF) and control mice (mass spectrometry). Format: in vivo, human liver chimeric mouse.
Experimental: Feces samples were weighted and homogenized in water (100 mg feces in 1,000 μl of H2O). Subsequently, 300 μl of methanol was added to 100 μl of the resulting mixture, followed by centrifugation at 15,000 g for 20 min. The supernatant was transferred to a new Eppendorf vial for a second centrifugation (15,000 g for 20 min). The final concentration of agomelatine is 2 μM. Each supernatant was transferred to an auto sampler vial for analysis (described below).
The column temperature was maintained at 40° C. The flow rate of was 0.3 mL/min with a gradient ranging from 2% to 98% aqueous acetonitrile containing 0.1% formic acid in a 15-min run. Quadrupole time of flight mass spectrometry (QTOFMS) was operated in positive mode with electrospray ionization. Ultra-highly pure nitrogen was applied as the drying gas (12 L/min) and the collision gas. The drying gas temperature was set at 325° C. and nebulizer pressure was kept at 35 psi. The capillary voltages were set at 3.5 kV. During mass spectrometry, real time mass correction and accurate mass were achieved by continuously measuring standard reference ions at m/z 121.0508, 922.0098 in the positive mode. Mass chromatograms and mass spectra were acquired by MassHunter Workstation data Acquisition software (Agilent, Santa Clara, Calif.) in centroid and profile formats from m/z 50 to 1000. The acquisition rate was set as 1.5 spectra per second. […] Meanwhile, the quality control samples were performed every 10 samples in the process of the sample running. Due to the authentic compounds of metabolites not available, the metabolite identification was based on their exact mass and MS/MS fragments. The chromatograms and relative abundance of metabolite were performed on Qualitative Analysis software (Agilent, Santa Clara, Calif.). The relative abundance was evaluated based on integrated peak area of each metabolite.
Data set [3] in a line: Liver enzymes after gefitinib. To be noted: mouse, in vivo.

For the molecule `Cc1c(C)c2c(c(C)c1O)CCC(C)(COc1ccc(CC3SC(=O)NC3=O)cc1)O2` (centres unmarked) [troglitazone], in data set [1] (two hours after i.p. injection of 600 mg/kg), the “glucuronide conjugates in non-humanized livers of control mice versus humans or humanized mice” value is recorded as “much higher amounts”. The “glucuronide conjugates upon deletion of ugdh and por” value in data set [1] (non-humanized and humanized mice, two hours after i.p. 600 mg/kg) is listed as “reduced significantly”.
As for `COc1cc2ncnc(Nc3ccc(F)c(Cl)c3)c2cc1OCCCN1CCOCC1` [gefitinib], the “level of metabolite M4 in feces” value in data set [2] (murine Por-deficient Hu-PIRF mice versus Por-expressing humanized and non-humanized control mice) is listed as “highest level”. The “level of human-specific metabolite M28 in feces” value in data set [2] (murine Por-deficient Hu-PIRF mice versus control groups) is given as “highest level”. In addition, in data set [3], the “elevation of liver enzymes” value is on record as “did not cause any elevation of liver enzymes”.
